Experimental data reported in ChEMBL document CHEMBL5604063, “ASAP - DENV-2 NS2B-NS3 protease fluorescence dose response” (2024).
“And” between values parts separate entries of the source, which are not always exact repeats. Identical values can stand only once.

Assays:
Genome polyprotein [1] = target: T1, Genome polyprotein (dengue virus type 2, UniProt P29990); format: functional, Thailand/16681/1984
Genome polyprotein [2] = target: T1, Genome polyprotein; format: functional, Thailand/16681/1984; remark: listed apart in the source

T1 sequence (P29990 1346-1475 limits assumed): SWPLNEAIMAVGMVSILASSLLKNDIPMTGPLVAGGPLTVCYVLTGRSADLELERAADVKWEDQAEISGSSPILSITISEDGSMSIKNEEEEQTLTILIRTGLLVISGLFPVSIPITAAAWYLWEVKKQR
T1 sequence (P29990 1476-2093 limits assumed): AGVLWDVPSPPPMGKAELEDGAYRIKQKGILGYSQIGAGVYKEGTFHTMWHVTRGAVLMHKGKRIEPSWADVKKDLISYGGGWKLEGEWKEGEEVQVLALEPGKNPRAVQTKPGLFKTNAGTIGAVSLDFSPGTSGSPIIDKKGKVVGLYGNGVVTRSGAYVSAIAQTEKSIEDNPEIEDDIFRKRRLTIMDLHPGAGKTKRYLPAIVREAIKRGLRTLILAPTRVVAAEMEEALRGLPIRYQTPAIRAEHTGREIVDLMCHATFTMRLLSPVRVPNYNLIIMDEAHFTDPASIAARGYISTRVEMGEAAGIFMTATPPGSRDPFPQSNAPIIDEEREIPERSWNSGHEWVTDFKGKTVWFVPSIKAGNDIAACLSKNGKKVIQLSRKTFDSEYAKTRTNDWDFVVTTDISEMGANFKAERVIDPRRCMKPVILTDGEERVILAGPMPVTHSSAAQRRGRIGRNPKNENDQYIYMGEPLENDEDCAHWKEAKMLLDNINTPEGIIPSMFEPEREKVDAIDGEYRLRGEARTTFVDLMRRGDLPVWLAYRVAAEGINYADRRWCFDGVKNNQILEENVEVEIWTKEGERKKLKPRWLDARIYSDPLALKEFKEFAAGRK

SMILES | IC50 (Genome polyprotein [1]) | IC50 (Genome polyprotein [2])
CC(C)c1cc(-c2ccc3[nH]c(C(=O)O)cc3c2)cc(S(N)(=O)=O)c1 | > 99.5 µM | > 100 µM
CC(C)(C)OC(=O)NCc1cc(NC(=O)c2cc(Cl)cc(NC(=O)OCc3ccccc3)c2)cc(-c2nn[nH]n2)c1 | 7.46 µM | 10.7 µM
NCCCCc1ccc(NC(=O)c2cc(Cl)cc3[nH]ncc23)cc1 | > 99.5 µM | > 100 µM
O=C(Nc1ccc2c(c1)CNCC2)c1cc(Cl)cc2[nH]ncc12 | > 99.5 µM | > 100 µM
O=C(O)c1cc2cc(-c3cccc([C@H]4CNCCO4)c3)ccc2[nH]1 | > 99.5 µM | > 100 µM
O=C(O)Cc1c[nH]c2cc(-c3cc(Cl)cc(NC(=O)OCc4ccccc4)c3)ccc12 | 13.3 µM | 9.67 µM
CC(C)(C)c1cc(Br)cc(C(=O)Nc2ccc3c(c2)CNC3)c1 | > 99.5 µM | > 100 µM
Cc1oc2nc(-c3cc(Cl)cc(NC(=O)OCc4ccccc4)c3)ccc2c1C(=O)O | 16.6 µM | 13.7 µM
CN1Cc2ccc(NC(=O)c3cc(Cl)cc4[nH]ncc34)cc2C1 | > 99.5 µM | > 100 µM
Cc1cc(CN)cc(NC(=O)c2cc(Cl)cc3[nH]ncc23)c1 | 98.3 µM | 85.4 µM
O=C(O)C[C@H]1CN(c2ccc(-c3cc(Cl)cc(NC(=O)OCc4ccccc4)c3)cn2)CCO1 | 35.2 µM | 22.2 µM
CC(C)NC(=O)[C@H](Nc1ccc2c(c1)CNC2)c1cc(Cl)cc2[nH]ncc12 | 64 µM and 37.2 µM and 98.4 µM | 96.5 µM and 41.2 µM and > 100 µM and 26.4 µM
O=C1CCc2c(cc(Cl)cc2-c2ccc3[nH]c(C(=O)O)cc3c2)N1 | > 99.5 µM | > 100 µM
O=C(Nc1ccc2c(c1)CNC2)c1cc(Br)cc2ccccc12 | > 99.5 µM | > 100 µM
NCCc1ccc(NC(=O)c2cc(Cl)cc3[nH]ncc23)cc1 | > 99.5 µM | > 100 µM
O=C(Nc1cc(Cl)cc(-c2cnn(Cc3ccc(C(=O)O)cc3)c2)c1)OCc1ccccc1 | 18.2 µM | 8.1 µM
C=C1C[C@H](c2cc(Cl)cc(NC(=O)OCc3ccccc3)c2)[C@@H](c2cccc(-c3nn[nH]n3)c2)C1 | 6.29 µM | 5.18 µM
O=C(Nc1ccc2c(c1)CNC2)c1cc(Cl)cc(C2CC2)c1 | > 99.5 µM | > 100 µM
O=C(Nc1ccc2c(c1)CNC2)c1cc(Cl)cc2c1CCC2 | > 99.5 µM | > 100 µM
O=C(O)c1cc2cccc(Cc3c[nH]c4ccc(Cl)cc34)c2[nH]1 | 52.1 µM | 21.6 µM
O=C(Nc1ccc2c(c1)CNC2)c1n[nH]c(=O)c2ccccc12 | 36.8 µM | > 100 µM

SMILES | IC50 (Genome polyprotein [1]) | IC50 (Genome polyprotein [2])
O=C1OCc2ccc(NC(=O)c3cc(Cl)cc4[nH]ncc34)cc21 | > 99.5 µM | > 100 µM
Clc1ccc2[nH]cc(Cc3ccc4c(c3)CNC4)c2c1 | > 99.5 µM | > 100 µM
O=C(Nc1ccc2c(c1)CNC2)c1n[nH]c2ncc(Br)cc12 | > 99.5 µM | > 100 µM
O=C(Nc1ccc2c(c1)CNC2)c1ccccn1 | > 99.5 µM | > 100 µM
N#Cc1ccc(Cl)c(C(=O)Nc2ccc3c(c2)CNC3)c1 | > 99.5 µM | > 100 µM
O=C(O)c1nc(Cc2c[nH]c3ccc(Cl)cc23)c2ccccn12 | > 99.5 µM | > 100 µM
Cc1cc(CC(=O)O)ccc1Cc1c[nH]c2ccc(Cl)cc12 | > 99.5 µM | > 100 µM
C=CC[C@H](Nc1ccc2c(c1)CNC2)c1cc(Cl)cc2[nH]ncc12 | 14 µM and 53.1 µM | > 100 µM
O=C(Nc1ccc2c(c1)CNC2)c1cccnc1 | > 99.5 µM | > 100 µM
O=C(O)c1cc2cc(-c3cc(Cl)cc4c3CCNC4=O)ccc2[nH]1 | > 99.5 µM | > 100 µM
O=C(O)c1cc2cc(-c3cccc([C@H]4COCCN4)c3)ccc2[nH]1 | > 99.5 µM | > 100 µM
CC(C)c1cc(Br)cc(C(=O)Nc2ccc3c(c2)CNC3)c1 | > 99.5 µM | > 100 µM
N[C@H]1CC[C@H](c2ccc(NC(=O)c3cc(Cl)cc4[nH]ncc34)cc2)C1 | > 99.5 µM | > 100 µM
Cc1ccc(C(C)C)c(C(=O)Nc2ccc3c(c2)CNC3)c1 | > 99.5 µM | > 100 µM
O=C(Nc1ccc2c(c1)CNC2)c1cc(Br)cc2c1OCO2 | > 99.5 µM | > 100 µM
O=C(O)COc1cc2c(cc1Cc1c[nH]c3ccc(Cl)cc13)OCO2 | > 99.5 µM | 89 µM
Cc1ccc(-c2cc(CN)cc([C@@H]3C[C@H]3c3cc(Cl)cc(NC(=O)OCc4ccccc4)c3)c2)cn1 | 31.5 µM | > 100 µM
O=C(Nc1ccc2c(c1)CNC2)[C@H]1CCc2ccccc21 | > 99.5 µM | > 100 µM
Cc1[nH]c2ccc(Cl)cc2c1Cc1ccc(-c2nnn[nH]2)cc1 | 42.6 µM | 21 µM
O=C1Cc2cc(NC(=O)c3cc(Cl)cc4[nH]ncc34)ccc2N1 | > 99.5 µM | > 100 µM
O=C(Nc1ccc2c(c1)OCO2)c1cc(Cl)cc2[nH]ncc12 | > 99.5 µM | > 100 µM

SMILES | IC50 (Genome polyprotein [1]) | IC50 (Genome polyprotein [2])
Cc1c(C(=O)O)sc2ncc(Cc3c[nH]c4ccc(Cl)cc34)cc12 | 46.7 µM | 25.3 µM
O=C(Nc1ccc(C2CNC2)cc1)c1cc(Cl)cc2[nH]ncc12 | > 99.5 µM | > 100 µM
Cn1ncc2c(C(=O)Nc3ccc4c(c3)CNC4)cc(Br)cc21 | > 99.5 µM | > 100 µM
CNC(=O)[C@H](Nc1cc(CNC(=O)OC(C)(C)C)cc(C(=O)O)c1)c1cc(Cl)cc(C2CC2)c1 | > 99.5 µM | > 100 µM
O=C(O)[C@H]1C[C@H](n2ccc(Cc3c[nH]c4ccc(Cl)cc34)n2)C1 | > 99.5 µM | > 100 µM
CCc1nc2c(C(=O)Nc3ccc4c(c3)CNC4)cc(Br)cc2[nH]1 | 24.7 µM | 25.4 µM and > 100 µM
O=C(Nc1cccc([C@@H]2C[C@H]2C(=O)O)c1)c1cc(Cl)cc2[nH]ncc12 | > 99.5 µM | > 100 µM
C=CC[C@H](Nc1cccc(C2(C(=O)O)CCC2)c1)c1cc(Cl)cc(NC(=O)OCc2ccccc2)c1 | 16.7 µM | 17.2 µM
CC(C)c1nc2cc(Cl)ccc2n1Cc1ccc(-c2nn[nH]n2)cc1 | > 99.5 µM | > 100 µM
c1ccc2c(Cc3ccc(-c4nnn[nH]4)cc3)c[nH]c2c1 | > 99.5 µM | > 100 µM
Nc1ccc(NC(=O)c2cc(Cl)cc3[nH]ncc23)cn1 | > 99.5 µM | > 100 µM
O=C(Nc1ccc2c(c1)C[C@H](O)C2)c1cc(Cl)cc2[nH]ncc12 | > 99.5 µM | > 100 µM
N#Cc1cc(-c2ccc3[nH]c(C(=O)O)cc3c2)cc(N2CCCC2)c1 | 63.4 µM | > 100 µM
CNc1c(-c2cc(Cl)cc(C3CC3)c2)nc2cc(C(=O)O)ccn12 | > 99.5 µM | > 100 µM
O=C(O)c1nn(-c2ccccc2)cc1Cc1c[nH]c2ccc(Cl)cc12 | 56.5 µM | 61 µM
O=C(Nc1cc(Cl)cc(-c2cc(NCc3ccccc3)c(C(=O)O)cn2)c1)OCc1ccccc1 | 7.58 µM | 5.35 µM
CNc1c(-c2cc(Cl)cc(C3CC3)c2)nc2cccc(C(=O)O)n12 | > 99.5 µM | > 100 µM
N#Cc1cccc(C[C@H](O)c2cc(Cl)cc(NC(=O)OCc3ccccc3)c2)c1 | > 99.5 µM | > 100 µM
O=C(Nc1ccc(C2CCNCC2)cc1)c1cc(Cl)cc2[nH]ncc12 | > 99.5 µM | > 100 µM
Cc1cc(-c2ccc3[nH]c(C(=O)O)cc3c2)c2cc[nH]c(=O)c2c1 | > 99.5 µM | > 100 µM
O=C(O)c1ccc(Cc2c[nH]c3ccc(Cl)cc23)cc1 | > 99.5 µM | > 100 µM

SMILES | IC50 (Genome polyprotein [1]) | IC50 (Genome polyprotein [2])
N#C[C@]1(Nc2cccc(-c3nn[nH]n3)c2)C(=O)Nc2ccc(Cl)cc21 | > 99.5 µM | > 100 µM
C=CC[C@H](Nc1cncc(Cl)c1)c1cccc(-c2nn[nH]n2)c1 | > 99.5 µM | > 100 µM
C=CC[C@H](Nc1cccc(Cl)c1)c1cccc(-c2nn[nH]n2)c1 | > 99.5 µM | 41.5 µM and 38.9 µM
O=C(O)CCCn1cnc(-c2cc(Cl)cc(NC(=O)OCc3ccccc3)c2)n1 | > 99.5 µM | > 100 µM
N#C[C@H](Nc1cncc(-c2nn[nH]n2)c1)c1cc(Cl)cc(NC(=O)OCc2ccccc2)c1 | 18.7 µM | 11 µM and 10.8 µM
N#C[C@H](c1cc(Cl)cc(C2CC2)c1)N1c2cnccc2C[C@H]1C(=O)O | > 99.5 µM | > 100 µM
NCc1cc(CCc2cc(Cl)cc(NC(=O)OCc3ccccc3)c2)cc(C(=O)O)c1 | > 99.5 µM | > 100 µM
NCc1cc(Cl)cc(-c2ccc3[nH]c(C(=O)O)cc3c2)c1 | > 99.5 µM | > 100 µM
CNc1ncc(C(F)(F)F)cc1-c1ccc2[nH]c(C(=O)O)cc2c1 | > 99.5 µM | > 100 µM
O=C(Nc1cc(Cl)cc(-c2cn(C3CCCC3)nc2C(=O)O)c1)OCc1ccccc1 | 34.3 µM | 42.7 µM and 31.7 µM
CNC(=O)[C@H](Nc1cc(CN)cc(C(=O)O)c1)c1cc(Cl)cc(C2CC2)c1 | > 99.5 µM | > 100 µM
NCc1cc(CC(=O)O)cc(NC(=O)c2cc(Cl)cc(NC(=O)OCc3ccccc3)c2)c1 | > 99.5 µM | > 100 µM
COc1cc(-c2cc(Cl)cc(NC(=O)OCc3ccccc3)c2)c(OC)cc1CC(=O)O | 32.8 µM | 18.4 µM and 18.3 µM
OCC#C[C@H](Nc1ccc2c(c1)CNC2)c1cc(Cl)cc2[nH]ncc12 | 25.1 µM | 92.7 µM and 63.7 µM
CNC(=O)[C@H](Nc1cc(Cl)cc(C2CC2)c1)c1ccc(-c2nn[nH]n2)cc1 | > 99.5 µM | 99.6 µM and > 100 µM
CNC(=O)[C@H](Nc1cccc(C2(C(=O)O)CCC2)c1)c1cc(Cl)cc(C2CC2)c1 | > 99.5 µM | > 100 µM
N#Cc1cc(Cl)cc(-c2ccc3[nH]c(C(=O)O)cc3c2)c1 | > 99.5 µM | > 100 µM and 82.1 µM
O=C(O)c1cc2cc(-c3cc(Cl)cc(C4CC4)c3)ccc2[nH]1 | 15.7 µM | 11.4 µM and 11 µM
C[C@](O)(Cc1cc(Cl)cc(NC(=O)OCc2ccccc2)c1)c1cccc(CN)c1 | > 99.5 µM | > 100 µM
CCc1cc(Br)cc2c(Cc3ccc(-c4nnn[nH]4)cc3)c[nH]c12 | 12 µM | 8.03 µM and 9.26 µM
Cn1cc(-c2cc(CN)cc([C@@H]3C[C@H]3c3cc(Cl)cc(NC(=O)OCc4ccccc4)c3)c2)cn1 | 42 µM | 51 µM
